Where “and” joins values, the source holds several entries; their conditions need not be identical. Identical values can stand only once.
What was measured:
SARS-CoV-2 [1] = conditions: human, in vivo
SARS-CoV-2 [2] = tested on: SARS-CoV-2
COVID-19 [3] = conditions: hospitalized patients; cited from earlier work
COVID-19 [4] = conditions: in vivo; cited from earlier work

| Compound | infection for COVID 19 at follow-up (SARS-CoV-2 [1]) | use of the therapy in respiratory diseases including SARS-COVID19 infections (SARS-CoV-2 [2]; elders, adults and children, most of them immune depressed patients) | new infection for COVID 19 at follow-up (SARS-CoV-2 [2]; human, in vivo) | time to recovery (SARS-CoV-2 [2]; human, in vivo) | effect on 28-day mortality or the in-hospital course of COVID-19 (COVID-19 [3]) | benefit for treatment of COVID-19 (COVID-19 [4]) |
| --- | --- | --- | --- | --- | --- | --- |
| O=O [oxygen] | no infection for COVID 19 has been developed | satisfactory used | no new infection for COVID 19 has developed | 5 days and 3 days |  |  |
| CCN(CCO)CCCC(C)Nc1ccnc2cc(Cl)ccc12 (stereo not shown) [hydroxychloroquine] |  |  |  |  | little or no effect | not been shown to offer any benefit |
| lopinavir/ritonavir |  |  |  |  | little or no effect |  |

From US20230030607A1, “Novel oxygen pulse therapy method for treating COVID19 and viral, bacterial, fungal or parasitic respiratory and other diseases” (priority 2021, published 2023)
